Source: US20240050385A1, “METHODS OF TREATING LEPTOMENINGEAL METASTASIS” (MEMORIAL SLOAN-KETTERING CANCER CENTER, priority 2020, published 2024)
Entries after “also recorded” stand apart in the source; their conditions may differ. Structures can show the parent of a compound that is named as a salt.

Experiments:
MDA231-LeptoM cells = test: In vivo leptomeningeal metastasis assay, MDA231-LeptoM model, intracisternal chelator treatment; parameters: species or system mouse; details: for Median Survival: every 3 days; for [Fe]: total iron in CSF
Protocol: FIG. 15A-15G. LCN2 transports iron to support cancer cell growth. (A) Tumor growth in mice injected with MDA231-LeptoM cells expressing shCtl or shLCN2. Treatment with either vehicle or 5 mg/mL holo-transferrin (diferric [Tf]) began on day 1 and continued every third day for a total of 7 doses. Left: Histogram represents in vivo BLI imaging post-inoculation at day 21. n=8-10 per group in each of two independent experiments. Right: Representative BLI images. ** indicates p<0.01 (unpaired t test). Data represent mean±SEM. (B) Kaplan-Meier survival curve of LeptoM groups from (A). sh1+Veh vs sh1+Tf, p<0.0001. sh2+Veh vs sh2+Tf, p<0.0001. (C) Soluble iron concentration from macrophages collected from CSF in lipopolysaccharide (LPS)-stimulated, LeptoM or LeptoM-shLCN2 (sh1 and sh2) mouse model at day 14. Soluble iron was measured by mass spectroscopy. n=4 per group. ** indicates p<0.01, *** indicates p<0.001, **** indicates p<0.0001 (unpaired t test). Data represent mean±SEM. (D and E) Phagocytosis (D) and reactive oxygen species (ROS) generation (E) in CSF-derived macrophages by flow cytometric analysis after LeptoM (LLC model), shLCN2 LPS, or vehicle (Ctl) treatment. Phagocytosis detected by FITC-labeled E. coli. CellROX Green^+ cells represent percent of live cells with ROS. n=12-15 (Ctl), n=4-5 (LPS), n=11-18 (LeptoM), n=8 (shLCN2). NS=not significant, * indicates p<0.05, ** indicates p<0.01, **** indicates p<0.0001 (unpaired t test). Data represent mean±SEM in two independent experiments. (F) Tumor growth in MDA231-LeptoM model after chelator treatment: deferoxamine (DFO), D-penicillamine (D-Pen) on […] (early) or day 7 (late); see also FIG. 16. Left: in vivo BLI imaging in day 28 post-inoculation. n=8-10 per group in each of two independent experiments. Right: Representative BLI images. **** indicates p<0.0001. Data represent mean±SEM. (G) Kaplan-Meier survival curve of mice treated in (F). p<0.0001.
(§1) FIG. 16A-16L. Iron chelator treatment reduces CSF iron. (A) Experimental scheme. Mice were inoculated with 2×10^3 cells intrathecally on day 0. Treatment with either vehicle, DFO, or D-pen was commenced on either day 1 or day 7 and continued every third day for a total of 7 doses. (B) Chelators delivered intrathecally. DFO, Deferoxamine. D-Pen, D-Penicillamine. (C-F) Intracellular iron (C and E) and viability (D and F) of PC9-LeptoM cells and MDA231-LeptoM cells after treatment with chelators in different concentrations (0 μM, 1 μM, 10 μM and 100 μM). n=3-4 per group in each of two independent experiments. * indicates p<0.05, ** indicates p<0.01, ***indicates p<0.001, **** indicates p<0.0001 (unpaired t test). Data represent mean±SEM. (G) Growth of PC9-LeptoM tumor after treatment indicated in (A). Left: in vivo BLI imaging in day 28 post-inoculation. n=8-10 per group in each of two independent experiments. Right: Representative BLI images. **** indicates p<0.0001. Data represent mean±SEM. (H) Kaplan-Meier survival curve from (C) and (E). p<0.0001. (I and J) Total iron concentration measured in CSF samples of mice with treatment of chelators in PC9-LeptoM Model (I) in MDA231-LeptoM model (J). NS=not significant, * indicates p<0.05, ** indicates p<0.01 (unpaired t test). Data represent mean±SEM. (K and L) Immune cell composition in CSF of LLC-LeptoM model with the treatment of vehicle, DFO, or D-pen at day 10. n=6 per group. NS=not significant, * indicates p<0.05, ** indicates p<0.01 (unpaired t test). Data represent mean±SEM.
In vivo leptomeningeal metastasis assays. To model leptomeningeal metastasis with a known consistent disease burden, 2×10^3 PC9, 2×10^3 MDA231, or 1×10^3 LLC Parental or LeptoM cells suspended in 10 μl PBS were injected into the cisterna magna of anesthetized mice. This procedure was tolerated well by the mice. Tumor progression was monitored by bioluminescence imaging (BLI) every 7 days after tumor cell inoculation, and mouse condition was monitored daily. […]

LeptoM cells = test: Cell Viability Assay / growth after chelator treatment; format: cell-based, human; details: PC9-LeptoM and MDA231-LeptoM; in words
Source text: as §1, with “NS=not significant, * indicates p<0.05, ** indicates p<0.01 (unpaired t test). Data represent mean±SEM. (K and L) Immune cell composition in CSF of LLC-LeptoM model with the treatment of vehicle, DFO, or D-pen at day 10. n=6 per group. NS=not significant, * indicates p<0.05, ** indicates p<0.01 (unpaired t test). Data represent mean±SEM.” left out
Cell Viability Assay. […] The CellTiter-Glo Luminescent Cell Viability Assay (Promega G9241) was used to quantify viable cells in culture according to the manufacturer's protocols. […]

PC9-LeptoM cells = test: In vivo leptomeningeal metastasis assay, PC9-LeptoM model, intracisternal chelator treatment; parameters: species or system mouse

SMILES	Median Survival (MDA231-LeptoM cells; MDA231-LeptoM model, intracisternal, start day not given) [days]	[Fe] (MDA231-LeptoM cells; MDA231-LeptoM model, start day not given) [µM]	iron concentration in the CSF compared to control mice (MDA231-LeptoM cells; MDA231-LeptoM model, day 28, in words)	[Fe] (MDA231-LeptoM cells; MDA231-LeptoM model, early (day 0)) [µM]	[Fe] (MDA231-LeptoM cells; MDA231-LeptoM model, late (day 7)) [µM]	Median Survival (MDA231-LeptoM cells; MDA231-LeptoM model, treatment begun early (day 0)) [days]	Median Survival (MDA231-LeptoM cells; MDA231-LeptoM model, treatment begun late (day 7)) [days]	dissemination of cancer cells over the spinal cord (MDA231-LeptoM cells; MDA231 mouse model, both early and late treatment groups, in words)	survival compared with vehicle control (MDA231-LeptoM cells; MDA231 mouse model, in words)	growth of the LeptoM cells (LeptoM cells)	[Fe] (PC9-LeptoM cells; total iron in CSF, early (day 0)) [µM]	Median Survival (PC9-LeptoM cells; treatment begun early (day 0), every 3 days) [days]
CC(C)(S)[C@@H](N)C(=O)O [D-Pen, D-penicillamine]	28 ± 7	39.44 ± 2.43	–	–	–	–	–	–	–	–	–	–
CC(=O)N(O)CCCCCNC(=O)CCC(=O)N(O)CCCCCNC(=O)CCC(=O)N(O)CCCCCN [DFO, Deferoxamine mesylate]	–	–	profoundly decreased; also recorded: reduced CSF iron concentration to that of non-LeptoM control mice	10.55 ± 1.31	9.19 ± 0.98	54.5 ± 5.5	38 ± 7	impaired dissemination	conferred a survival benefit; also recorded: significant survival benefit	substantially suppressed; also recorded: dramatically suppressed	5.63 ± 0.70	52 ± 7
